Test results reported in patent publication US20180273531A1, “PYRIMIDINE COMPOUND AND MEDICAL USE THEREOF” (Japan Tobacco Inc., priority 2004, published 2018).

Legend:
HT-29 cells = assay: Evaluation on the nude-mouse xenograft model; assay type: in vivo, mouse (Balb/c-nu/nu); settings: HT-29, po, 240 h, 30 mg/kg orally twice a day for 10 days, tumor volume, treated vs vehicle group, n=6-8, read-out: T/C(%)
Experimental: HT-29 cells (5.0×10^6 cells/100 μL/head, suspended in HBSS (Hanks' solution)) in the logarithmic growth phase were implanted in a mouse (Balb/c-nu/nu) at the right lateral abdomen under ether anesthesia. After 5 days of implantation, the long diameter and short diameter of the tumor were measured, and the mice were divided into groups such that each group has an equivalent average tumor volume. For grouping, a grouping soft (general grouping system (Visions) was used. From the next day of the grouping, a test substance suspended in 0.5% MC (methyl cellulose) was repeatedly orally administered twice a day for 10 days (30 mg/kg). The tumor volume was measured twice a week and used as an index of antitumor activity. As a control, 0.5% MC was used and the test was performed with n=6-8.
The index (T/C (%)) of the antitumor activity was calculated according to the following formula.
T/C(%)=(The average tumor volume of the group treated with a test substance)/(The average tumor volume of the Vehicle group)×100
The tumor volume was calculated according to the following formula.
Tumor volume(mm^3)=L×W×W/2
(L: long diameter (mm) of tumor, W: short diameter (mm) of tumor)

B-Raf and MEK1 = B-Raf and MEK1 (Homo sapiens, UniProt Q02750); assay: MEK enzyme inhibitory activity, B-Raf and MEK1 system; assay type: biochemical; settings: 30° C., 20 min, [γ-32P]-ATP; average of two or three tests
Sequence of B-Raf and MEK1 (Q02750 whole entry): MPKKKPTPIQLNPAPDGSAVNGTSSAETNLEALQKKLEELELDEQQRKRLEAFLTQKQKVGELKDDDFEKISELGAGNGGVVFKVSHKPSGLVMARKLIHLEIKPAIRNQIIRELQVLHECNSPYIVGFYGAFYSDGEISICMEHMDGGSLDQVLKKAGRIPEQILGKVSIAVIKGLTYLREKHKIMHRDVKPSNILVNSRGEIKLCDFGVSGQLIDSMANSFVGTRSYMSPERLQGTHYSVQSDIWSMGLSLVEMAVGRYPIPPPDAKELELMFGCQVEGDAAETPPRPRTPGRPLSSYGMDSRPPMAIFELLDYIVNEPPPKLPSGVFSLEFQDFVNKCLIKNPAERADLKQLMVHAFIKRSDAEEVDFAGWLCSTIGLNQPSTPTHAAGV
Experimental: (§1) To an evaluation system where Raf (B-Raf or c-Raf) and MEK (MEK1 or MEK2) were mixed, or MEK (MEK1 or MEK2) and ERK2 were mixed was added a test substance dissolved in DMSO, and an ATP solution containing [γ-32P]-ATP was added to start the enzyme reaction. After reacting at 30° C. for 20 min, the reaction mixture was subjected to SDS-PAGE (sodium dodecylsulfate-polyacrylamide gel electrophoresis) and radioactivity of phosphorylated MEK or ERK2 was measured by Bio Imaging Analyzer (BAS2000, Fuji photo film).

MEK2 and ERK2 = MEK2 and ERK2 (Homo sapiens, UniProt P36507); assay: MEK enzyme inhibitory activity, MEK2 and ERK2 system; assay type: biochemical; settings: 30° C., 20 min, [γ-32P]-ATP; average of two or three tests
Sequence of MEK2 and ERK2 (P36507 whole entry): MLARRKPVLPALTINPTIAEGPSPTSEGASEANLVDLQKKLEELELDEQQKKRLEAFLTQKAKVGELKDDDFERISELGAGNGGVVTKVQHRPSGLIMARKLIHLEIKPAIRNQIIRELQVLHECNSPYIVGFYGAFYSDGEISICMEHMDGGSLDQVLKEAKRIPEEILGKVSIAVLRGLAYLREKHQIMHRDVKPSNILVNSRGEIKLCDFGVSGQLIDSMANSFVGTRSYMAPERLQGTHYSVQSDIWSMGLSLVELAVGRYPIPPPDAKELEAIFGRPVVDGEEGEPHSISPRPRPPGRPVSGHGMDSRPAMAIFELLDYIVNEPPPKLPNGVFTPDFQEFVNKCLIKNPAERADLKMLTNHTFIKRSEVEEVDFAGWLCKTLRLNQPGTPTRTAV
Experimental: as §1

c-Raf and MEK2 = c-Raf and MEK2 (Homo sapiens, UniProt P36507); assay: MEK enzyme inhibitory activity, c-Raf and MEK2 system; assay type: biochemical; settings: 30° C., 20 min, [γ-32P]-ATP; average of two or three tests
Sequence of c-Raf and MEK2 (P36507 whole entry): as above
Experimental: as §1

B-Raf and MEK2 = B-Raf and MEK2 (Homo sapiens, UniProt P36507); assay: MEK enzyme inhibitory activity, B-Raf and MEK2 system; assay type: biochemical; settings: 30° C., 20 min, [γ-32P]-ATP; average of two or three tests
Sequence of B-Raf and MEK2 (P36507 whole entry): as above
Experimental: as §1

MEK1 and ERK2 = MEK1 and ERK2 (Homo sapiens, UniProt Q02750); assay: MEK enzyme inhibitory activity, MEK1 and ERK2 system; assay type: biochemical; settings: 30° C., 20 min, [γ-32P]-ATP; average of two or three tests
Sequence of MEK1 and ERK2 (Q02750 whole entry): as the sequence (Q02750 whole entry) above
Experimental: as §1

[1] = system: Renal cancer cell line ACHN cell; assay: Growth inhibitory effect against cancer cell lines (3H-thymidine uptake), ACHN; assay type: cell-based; settings: Homo sapiens, ACHN
How it was run: (§2)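 Cells seeded at 1.0×10^4/well, grown 24 hrs, then exposed to compound in DMSO for 18 hrs before 6 hrs pulse with ^3H-thymidine (0.25 μCi/well). Harvested cell-incorporated radioactivity counted; IC50 is the concentration halving uptake versus DMSO control, triplicate.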

[2] = system: colorectal cancer cell line HT-29 cells; assay: Growth inhibitory effect against cancer cell lines (3H-thymidine uptake), HT-29; assay type: cell-based; settings: Homo sapiens, HT-29, inhibition of 3H-thymidine uptake; test substance 18 hrs, then 3H-thymidine 6 hrs; triplicate
How it was run: as §2

p27 protein = p27 protein induction test (Western blotting); assay type: cell-based; settings: test substance (0.1 1M), 24 hrs, ACHN cells or HT-29 cells, compared to DMSO, n=2
How it was run: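 ACHN or HT-29 cells grown 24 h, then treated with test substance at […] (DMSO) for 24 h. Lysates normalised by protein content and probed by Western blot with anti-p27 antibody. Band density quantified by densitometer against DMSO control, n=2 averaged.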

Cn1c(=O)cc(Nc2ccc(I)cc2F)c2c(=O)n(C3CC3)c(=O)n(-c3cccc(NS(C)(=O)=O)c3)c21 [Example 1-257]
response vs control in vivo at 30 mg/kg (HT-29 cells): 26%
IC50 of various enzyme reaction system, B-Raf MEK1 (B-Raf and MEK1): 6 nM
IC50 of various enzyme reaction system, MEK2 ERK2 (MEK2 and ERK2): 1600 nM
IC50 of various enzyme reaction system, c-Raf MEK2 (c-Raf and MEK2): 7.8 nM
IC50 of various enzyme reaction system, B-Raf MEK2 (B-Raf and MEK2): 18.8 nM
IC50 of various enzyme reaction system, MEK1 ERK2 (MEK1 and ERK2): 1300 nM
IC50 [1]: < 10 nM
IC50 [2]: < 10 nM
fold induction at 0.1 µM (p27 protein): ≥ 1.5
